Assay results taken from patent US11332490B1, “Compounds and methods for treating osteoarthritis” (Academia Sinica, priority 2021, dated 2022).
Entries after “also recorded” stand apart in the source; their conditions may differ.

How the values were obtained:
[1] = biological target: T1, Sulf-1 (Homo sapiens, UniProt Q8IWU6); assay: HPLC assay of sulfate ion release from the substrate by Sulf-1; details: substrate 480 μM, treated with human Sulf-1, HPLC
Protocol: (§1) HPLC assay. […] Release of the sulfate ion from the substrate was quantified via HPLC. Each sample (5 μL) was injected to AS9HC anion-exchange column (Dionex), and the sulfate ion was eluted by 9 mM Na2CO3 then analyzed by a conductivity detector (PROD, AERS500, 4 mm, Thermal) with reagent-free controller (PROD, RFC-10) and compared with a standard curve with Na2SO4 (Merck) from 0 to 500 μM.

[2] = biological target: T1, Sulf-1; assay: Competition assay with 4-MUS substrate (fluorogenic); assay type: biochemical; design: made in house; details: for EC50: competition with 4-MUS for Sulf-1
Protocol: Competition assay with 4-MUS substrate. […] A control mixture without the competing substrate was defined as 100% fluorescent intensity, and the sample with substrate was determined as percentage of fluorescent intensity: (Fluorescent intensity of substrate sample)/(Fluorescent intensity of control sample).
HS oligosaccharides of Example 1.2 were used as competing substrates in the presence of 4-MUS for the identification of Sulf-1 substrate. Compounds 18-20 as well as the commercially available heparin 3000 were independently assessed for their competing effect on 4-MUS cleavage by Sulf-1 to yield the fluorescent 4-methylumbelliferone (4-MU) (FIG. 1, (A)).

[3] = biological target: T1, Sulf-1; assay: Sulf-1 inhibition assay (4-MU released from 4-MUS)
From the text: Sulf-1 inhibition assay. […] The data obtained were fitted to the Michaelis-Menten equation using the GraphPad to determine the enzyme inhibition parameters.

[4] = biological target: T2, human Sulf-1d417-726 (Homo sapiens, UniProt Q8IWU6, DEL417-726); assay: Determination of dissociation constant (KD) using surface plasmon resonance; assay type: binding; details: compound immobilized on CM5 sensor chip, 1:1 Langmuir model
T2 construct: made in house
Protocol: Determination of dissociation constant (KD) using surface plasmon resonance. Compound 46 was immobilized on the surface of a Biacore sensor chip (GE Healthcare) according to the manufacturer's guidelines using Biacore T200 system. The kinetic analysis study was performed at different concentrations of hSulf1d417-726 protein upon serial dilution to 250, 125, 63, 31 and 15 nM in running buffer [20 mM NaOAc (pH 5.0), 150 mM NaCl, and 0.05% Tween 20] and injected on to the chip surface with a flow rate of 25 μL/min at 25° C. In each run, the chip sensor surface was regenerated by injecting 4 M NaCl. The titration curves fit well to a 1:1 Langmuir binding model for calculations of equilibrium constants.
With highest inhibitory activity, the binding affinity of the inhibitor 46 with human Sulf-1 was further measured by surface plasmon resonance (SPR). The hydrophilic domain-deleted mutant of Sulf-1, namely human Sulf-1d417-726, lacking two furin-type proteinase cleavage sites responsible for forming the disulfide-bonded heterodimers of 75- and 50-kDa subunits with retained enzyme activity was constructed according to the literature report. Compound 46 was immobilized on the CM5 sensor chip, and aliquots of human Sulf-1d417-726 at gradient concentrations were applied onto the chip.

[5] = test system: NCCCCCO[C@@H]1OC(C(=O)O)C(O[C@H]2OC(COS(=O)(=O)O)[C@@H](O[C@@H]3OC(C(=O)O)C(O)[C@@H](O)C3OS(=O)(=O)O)[C@H](O)C2NS(=O)(=O)O)[C@@H](O)C1OS(=O)(=O)O; assay: purified protein, by the assay type; details: other: released sulfate at different substrate concentrations; pH 7.4; 37.0 °C
Protocol: as §1

NCCCCCO[C@@H]1OC(C(=O)O)C(O[C@@H]2OC(COS(=O)(=O)O)[C@@H](O)C(O)C2NS(=O)(=O)O)[C@@H](O)C1OS(=O)(=O)O (stereo partly drawn) [Compound 18]
sulfate concentration upon hydrolysis by Sulf-1 [1]: 5.9 µM
fluorescence intensity (4-MUS hydrolysis, % of control) ([2]; competitor 320 μM, 4-MUS 4.35 mM, 4-MUS with Sulf-1 in pure water = 100%): 94.5%

NCCCCCO[C@@H]1O[C@@H](C(=O)O)[C@@H](O[C@H]2O[C@H](COS(=O)(=O)O)[C@@H](O[C@@H]3O[C@@H](C(=O)O)[C@@H](O[C@H]4O[C@H](COS(=O)(=O)O)[C@@H](O)[C@H](O)[C@H]4NS(=O)(=O)O)[C@H](O)[C@H]3OS(=O)(=O)O)[C@H](O)[C@H]2NS(=O)(=O)O)[C@H](O)[C@H]1OS(=O)(=O)O [Compound 19]
sulfate concentration upon hydrolysis by Sulf-1 [1]: 46.2 µM
EC50 [2]: 87.8 µM
competing effect on 4-MUS cleavage by Sulf-1 (in words) ([2]; competitor 320 μM (0.32 mM), 4-MUS 4.35 mM): strongly compete with 4-MUS; also recorded: good binder

NCCCCCO[C@@H]1OC(C(=O)O)C(O[C@H]2OC(COS(=O)(=O)O)[C@@H](O[C@@H]3OC(C(=O)O)C(O)[C@@H](O)C3OS(=O)(=O)O)[C@H](O)C2NS(=O)(=O)O)[C@@H](O)C1OS(=O)(=O)O (stereo partly drawn) [Compound 36]
EC50 [2]: 3.8 µM

NCCCCCO[C@@H]1OC(C(=O)O)C(O[C@H]2OC(COS(N)(=O)=O)[C@@H](O)C(O)C2NS(=O)(=O)O)[C@@H](O)C1OS(=O)(=O)O (stereo partly drawn) [Compound 45]
inhibition at 700 µM ([3]; read-out: Sulf-1 activity inhibited): 20%

NCCCCCO[C@@H]1O[C@@H](C(=O)O)[C@@H](O[C@H]2O[C@H](COS(N)(=O)=O)[C@@H](O[C@@H]3O[C@@H](C(=O)O)[C@@H](O)[C@H](O)[C@H]3OS(=O)(=O)O)[C@H](O)[C@H]2NS(=O)(=O)O)[C@H](O)[C@H]1OS(=O)(=O)O [Compound 46]
IC50 [3]: 0.53 µM
Ki [3]: 360 nM
Kd [4]: 12 nM

NCCCCCO[C@@H]1O[C@@H](C(=O)O)[C@@H](O[C@H]2O[C@H](COS(N)(=O)=O)[C@@H](O[C@@H]3O[C@@H](C(=O)O)[C@@H](O[C@H]4O[C@H](COS(N)(=O)=O)[C@@H](O)[C@H](O)[C@H]4NS(=O)(=O)O)[C@H](O)[C@H]3OS(=O)(=O)O)[C@H](O)[C@H]2NS(=O)(=O)O)[C@H](O)[C@H]1OS(=O)(=O)O [Compound 47]
IC50 [3]: 29.6 µM

human Sulf-1 (Homo sapiens)
Km [5]: 25.8 µM
